Laboratory results from paper PMC6801739, “Antitumor Activity of a Novel Tyrosine Kinase Inhibitor AIU2001 Due to Abrogation of the DNA Damage Repair in Non-Small Cell Lung Cancer Cells” (International Journal of Molecular Sciences, 2019).

Legend:
[1] = molecular target: T1, ALK (Homo sapiens, UniProt Q9UM73); assay: Kinase profiling at 10 μM (Eurofins); format: biochemical; conditions: read-out: Inhibitory activity
T1 construct: purchased Eurofins Pharma Discovery (KinaseProfiler); IC50 values by Reaction Biology Corp
T1 sequence (Q9UM73 19-1620): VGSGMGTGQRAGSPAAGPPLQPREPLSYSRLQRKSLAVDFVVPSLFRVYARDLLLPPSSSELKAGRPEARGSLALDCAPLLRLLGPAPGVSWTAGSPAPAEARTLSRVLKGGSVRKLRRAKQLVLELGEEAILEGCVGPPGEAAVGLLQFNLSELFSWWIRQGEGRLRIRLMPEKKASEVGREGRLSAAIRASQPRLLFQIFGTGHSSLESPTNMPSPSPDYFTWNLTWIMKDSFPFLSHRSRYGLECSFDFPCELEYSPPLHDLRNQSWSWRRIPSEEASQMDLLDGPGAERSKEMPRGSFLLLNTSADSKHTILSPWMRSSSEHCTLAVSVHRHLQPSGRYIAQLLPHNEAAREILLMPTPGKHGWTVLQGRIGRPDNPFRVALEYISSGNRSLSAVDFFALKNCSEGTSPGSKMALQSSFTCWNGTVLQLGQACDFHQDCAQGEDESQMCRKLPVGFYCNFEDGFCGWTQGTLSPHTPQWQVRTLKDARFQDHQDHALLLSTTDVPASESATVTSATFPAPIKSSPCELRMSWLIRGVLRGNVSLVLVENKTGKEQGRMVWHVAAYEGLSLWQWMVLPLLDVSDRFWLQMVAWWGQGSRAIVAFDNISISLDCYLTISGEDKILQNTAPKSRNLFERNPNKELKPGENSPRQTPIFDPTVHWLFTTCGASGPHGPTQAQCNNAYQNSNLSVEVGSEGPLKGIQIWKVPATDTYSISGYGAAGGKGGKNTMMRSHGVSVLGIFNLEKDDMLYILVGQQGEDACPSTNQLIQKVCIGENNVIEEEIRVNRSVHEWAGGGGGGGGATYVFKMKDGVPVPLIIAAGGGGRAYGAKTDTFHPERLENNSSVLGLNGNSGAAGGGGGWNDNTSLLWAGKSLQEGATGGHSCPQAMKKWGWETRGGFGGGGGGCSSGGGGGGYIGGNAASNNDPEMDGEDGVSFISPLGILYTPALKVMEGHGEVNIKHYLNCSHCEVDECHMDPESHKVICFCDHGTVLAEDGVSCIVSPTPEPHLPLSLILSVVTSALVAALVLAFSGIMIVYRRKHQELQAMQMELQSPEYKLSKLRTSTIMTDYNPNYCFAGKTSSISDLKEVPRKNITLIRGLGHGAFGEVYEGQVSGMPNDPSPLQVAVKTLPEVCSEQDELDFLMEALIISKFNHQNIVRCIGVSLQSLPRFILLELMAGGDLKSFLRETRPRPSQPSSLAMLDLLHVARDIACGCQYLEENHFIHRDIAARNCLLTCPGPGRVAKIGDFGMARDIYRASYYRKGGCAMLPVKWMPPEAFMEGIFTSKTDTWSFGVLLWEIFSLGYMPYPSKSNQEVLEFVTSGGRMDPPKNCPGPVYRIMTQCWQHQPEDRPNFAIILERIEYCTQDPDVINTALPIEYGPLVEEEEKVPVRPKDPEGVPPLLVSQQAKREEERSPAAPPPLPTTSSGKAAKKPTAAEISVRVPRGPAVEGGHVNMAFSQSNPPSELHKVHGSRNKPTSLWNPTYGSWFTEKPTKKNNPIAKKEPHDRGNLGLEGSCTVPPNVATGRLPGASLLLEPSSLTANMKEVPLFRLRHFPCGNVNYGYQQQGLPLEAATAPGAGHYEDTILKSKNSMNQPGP

[2] = molecular target: T2, CDK5/p35 (Homo sapiens, UniProt Q00535); assay: Kinase profiling at 10 μM (Eurofins); format: biochemical; conditions: read-out: Inhibitory activity
T2 construct: purchased Eurofins Pharma Discovery (KinaseProfiler); IC50 values by Reaction Biology Corp
T2 sequence (Q00535 whole entry): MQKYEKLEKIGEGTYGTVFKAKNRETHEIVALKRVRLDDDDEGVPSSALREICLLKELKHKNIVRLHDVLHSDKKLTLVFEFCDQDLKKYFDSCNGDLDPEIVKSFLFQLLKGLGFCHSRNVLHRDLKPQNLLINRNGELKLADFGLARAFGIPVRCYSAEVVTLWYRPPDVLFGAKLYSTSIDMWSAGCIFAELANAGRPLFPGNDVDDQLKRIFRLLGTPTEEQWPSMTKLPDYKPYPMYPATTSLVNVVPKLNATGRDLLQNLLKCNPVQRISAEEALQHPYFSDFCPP
T2 sequence (Q15078 whole entry partner): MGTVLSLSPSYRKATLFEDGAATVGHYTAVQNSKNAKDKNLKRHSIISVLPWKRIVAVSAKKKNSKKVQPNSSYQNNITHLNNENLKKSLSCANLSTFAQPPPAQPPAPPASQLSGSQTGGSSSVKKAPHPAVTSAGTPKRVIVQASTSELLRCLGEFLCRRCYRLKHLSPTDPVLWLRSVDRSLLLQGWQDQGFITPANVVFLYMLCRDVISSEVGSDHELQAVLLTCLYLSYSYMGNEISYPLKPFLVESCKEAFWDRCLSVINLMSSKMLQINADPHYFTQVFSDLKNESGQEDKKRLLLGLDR

[3] = molecular target: T3, CHK1 (Homo sapiens, UniProt O14757); assay: Kinase profiling at 10 μM (Eurofins); format: biochemical; conditions: read-out: Inhibitory activity
T3 construct: purchased Eurofins Pharma Discovery (KinaseProfiler); IC50 values by Reaction Biology Corp

[4] = molecular target: T4, cSRC (Homo sapiens, UniProt P12931); assay: Kinase profiling at 10 μM (Eurofins); format: biochemical; conditions: read-out: Inhibitory activity
T4 construct: purchased Eurofins Pharma Discovery (KinaseProfiler); IC50 values by Reaction Biology Corp

[5] = molecular target: T5, EGFR (Homo sapiens, UniProt P00533); assay: Kinase profiling at 10 μM (Eurofins); format: biochemical; conditions: read-out: Inhibitory activity
T5 construct: purchased Eurofins Pharma Discovery (KinaseProfiler); IC50 values by Reaction Biology Corp
T5 sequence (P00533 25-1210): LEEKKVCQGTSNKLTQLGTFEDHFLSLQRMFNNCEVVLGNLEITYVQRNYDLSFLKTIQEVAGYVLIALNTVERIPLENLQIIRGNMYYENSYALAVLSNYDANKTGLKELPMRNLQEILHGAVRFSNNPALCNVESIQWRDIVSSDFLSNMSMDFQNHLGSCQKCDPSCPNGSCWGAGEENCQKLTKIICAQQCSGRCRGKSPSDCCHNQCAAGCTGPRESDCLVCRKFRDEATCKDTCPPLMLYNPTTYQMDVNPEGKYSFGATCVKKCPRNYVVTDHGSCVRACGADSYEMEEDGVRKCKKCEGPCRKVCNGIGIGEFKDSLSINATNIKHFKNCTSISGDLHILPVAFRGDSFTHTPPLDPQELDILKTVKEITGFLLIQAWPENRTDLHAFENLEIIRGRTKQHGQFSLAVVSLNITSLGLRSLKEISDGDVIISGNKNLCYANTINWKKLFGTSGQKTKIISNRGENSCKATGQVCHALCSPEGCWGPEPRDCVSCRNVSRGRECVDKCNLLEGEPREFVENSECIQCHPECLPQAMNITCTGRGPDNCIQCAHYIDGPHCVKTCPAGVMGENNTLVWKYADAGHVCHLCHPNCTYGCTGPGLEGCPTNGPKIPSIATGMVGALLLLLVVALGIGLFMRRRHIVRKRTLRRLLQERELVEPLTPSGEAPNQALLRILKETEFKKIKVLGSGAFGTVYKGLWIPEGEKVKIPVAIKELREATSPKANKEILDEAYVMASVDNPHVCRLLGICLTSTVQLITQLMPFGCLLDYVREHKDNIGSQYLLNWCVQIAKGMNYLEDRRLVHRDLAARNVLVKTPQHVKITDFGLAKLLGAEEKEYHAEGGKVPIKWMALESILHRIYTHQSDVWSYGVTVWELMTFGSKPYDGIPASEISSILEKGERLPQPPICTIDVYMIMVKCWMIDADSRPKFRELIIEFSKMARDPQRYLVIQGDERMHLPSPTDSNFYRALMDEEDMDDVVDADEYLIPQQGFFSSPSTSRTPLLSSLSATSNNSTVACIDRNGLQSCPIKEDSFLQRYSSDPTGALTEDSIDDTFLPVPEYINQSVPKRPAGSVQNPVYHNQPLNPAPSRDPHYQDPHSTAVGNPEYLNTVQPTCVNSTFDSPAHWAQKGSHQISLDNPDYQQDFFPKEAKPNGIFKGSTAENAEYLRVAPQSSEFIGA

[6] = molecular target: T6, FGFR1 (Homo sapiens, UniProt P11362); assay: Kinase profiling at 10 μM (Eurofins); format: biochemical; conditions: read-out: Inhibitory activity
T6 construct: purchased Eurofins Pharma Discovery (KinaseProfiler); IC50 values by Reaction Biology Corp
T6 sequence (P11362 22-822): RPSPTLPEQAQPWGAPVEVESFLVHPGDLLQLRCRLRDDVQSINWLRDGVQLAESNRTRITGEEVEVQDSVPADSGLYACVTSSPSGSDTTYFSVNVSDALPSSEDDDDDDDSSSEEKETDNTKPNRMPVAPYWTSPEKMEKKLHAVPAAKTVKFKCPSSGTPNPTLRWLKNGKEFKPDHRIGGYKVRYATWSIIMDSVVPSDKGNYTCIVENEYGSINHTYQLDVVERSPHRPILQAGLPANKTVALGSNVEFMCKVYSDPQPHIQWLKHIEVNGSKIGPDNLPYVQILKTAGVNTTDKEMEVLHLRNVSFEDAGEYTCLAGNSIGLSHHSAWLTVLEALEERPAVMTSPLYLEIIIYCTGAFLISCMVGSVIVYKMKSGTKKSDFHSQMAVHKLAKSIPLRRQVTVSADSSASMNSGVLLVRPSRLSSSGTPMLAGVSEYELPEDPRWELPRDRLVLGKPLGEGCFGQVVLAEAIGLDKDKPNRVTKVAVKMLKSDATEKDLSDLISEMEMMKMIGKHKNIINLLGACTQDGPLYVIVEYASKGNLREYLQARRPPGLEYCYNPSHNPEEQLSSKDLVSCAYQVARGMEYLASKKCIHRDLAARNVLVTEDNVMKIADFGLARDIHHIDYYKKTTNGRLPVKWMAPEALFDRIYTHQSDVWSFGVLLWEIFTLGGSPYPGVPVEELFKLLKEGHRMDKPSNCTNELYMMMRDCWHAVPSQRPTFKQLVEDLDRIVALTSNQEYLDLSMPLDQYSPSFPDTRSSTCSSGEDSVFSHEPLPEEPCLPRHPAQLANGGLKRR

[7] = molecular target: T7, IKKα (Homo sapiens, UniProt O15111); assay: Kinase profiling at 10 μM (Eurofins); format: biochemical; conditions: read-out: Inhibitory activity
T7 construct: purchased Eurofins Pharma Discovery (KinaseProfiler); IC50 values by Reaction Biology Corp
T7 sequence (O15111 whole entry): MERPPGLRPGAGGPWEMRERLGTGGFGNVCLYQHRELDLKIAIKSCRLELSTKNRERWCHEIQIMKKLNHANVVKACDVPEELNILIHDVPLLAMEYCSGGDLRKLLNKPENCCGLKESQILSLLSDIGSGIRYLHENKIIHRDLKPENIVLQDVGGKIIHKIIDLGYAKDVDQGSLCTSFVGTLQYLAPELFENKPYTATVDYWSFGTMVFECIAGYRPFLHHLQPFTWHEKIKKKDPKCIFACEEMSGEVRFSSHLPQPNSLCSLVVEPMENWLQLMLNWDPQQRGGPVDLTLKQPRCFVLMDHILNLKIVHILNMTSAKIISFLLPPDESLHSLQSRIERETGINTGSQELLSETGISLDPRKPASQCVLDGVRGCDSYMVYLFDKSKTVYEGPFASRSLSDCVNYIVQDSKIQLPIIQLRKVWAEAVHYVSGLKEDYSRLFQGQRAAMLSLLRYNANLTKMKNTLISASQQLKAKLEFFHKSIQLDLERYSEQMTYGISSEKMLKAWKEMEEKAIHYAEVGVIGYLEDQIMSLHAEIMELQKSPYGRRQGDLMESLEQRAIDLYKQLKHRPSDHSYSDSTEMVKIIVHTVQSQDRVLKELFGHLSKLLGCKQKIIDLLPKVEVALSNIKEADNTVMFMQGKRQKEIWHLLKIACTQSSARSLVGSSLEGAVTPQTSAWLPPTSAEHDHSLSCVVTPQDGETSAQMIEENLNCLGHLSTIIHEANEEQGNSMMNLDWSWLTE

[8] = molecular target: T8, p70S6K (Homo sapiens, UniProt P23443); assay: Kinase profiling at 10 μM (Eurofins); format: biochemical; conditions: read-out: Inhibitory activity
T8 construct: purchased Eurofins Pharma Discovery (KinaseProfiler); IC50 values by Reaction Biology Corp

[9] = molecular target: T9, PKBα (Homo sapiens, UniProt P31749); assay: Kinase profiling at 10 μM (Eurofins); format: biochemical; conditions: read-out: Inhibitory activity
T9 construct: purchased Eurofins Pharma Discovery (KinaseProfiler); IC50 values by Reaction Biology Corp

[10] = system: CCD18-Lu cells; assay: MTT cell viability assay; format: cell-based, human; conditions: CCD18-Lu lung fibroblast cells, five days
Protocol: (§1) Cell viability was assessed using the MTT colorimetric assay. Cells (1 × 10^3 cells/well) were seeded into 96-well plates and treated with the various concentrations of each compound or combination of two compounds. After five days of treatment, 10 μL MTT (0.5 mg/mL) was added, and further incubated for 3 h. After removal of the supernatant, the resultant pellet was dissolved in DMSO. The absorbance of the resultant formazan was measured at 540 nm using a plate reader (Multiskan EX; ThermoLabsystems, Waltham, MA, USA).

[11] = system: H460 cells; assay: MTT cell viability assay; format: cell-based, human; conditions: five days
Protocol: as §1

[12] = system: HCT116 p53+/+ cells; assay: MTT cell viability assay; format: cell-based, human; conditions: 5 days
Protocol: as §1
(§2) Supplementary Figure 1. AIU2001 inhibited the proliferation of various cancer cells. (A and B)
(§3) Human AML cells (Molm-13 and MV4-11; A) and human colorectal cancer (CRC) cells
(§4) (HCT116/p53+/+ and HCT116/p53-/-; B) were treated with AIU2001 at the indicated concentrations for
(§5) 5 days and viable cells were evaluated using the CCK-8 assay for AML cells and the MTT assay for
(§6) CRC cells. *p < 0.05, **p < 0.01, ***p < 0.001 versus respective vehicle controls.
(§7) (also on this page, place not known: ca ncer fo r 02468 Cell viability (%) 0 1 Cell viability (%) *** *** ***)

[13] = system: HCT116 p53-/- cells; assay: MTT cell viability assay; format: cell-based, human; conditions: 5 days
Protocol: as §1, §2, §3, §4, §5, §6, §7

[14] = system: A549 cells; assay: Immunoblot of cell cycle checkpoint proteins; format: cell-based, human; conditions: 5 μM
Protocol: (§8) Cell lysates were prepared by extracting proteins with TNN buffer (40 mM Tris-Cl pH 8.0, 0.2% NP-40, 120 mM NaCl) or radioimmunoprecipitation assay (RIPA) lysis buffer (Millipore, Billerica MA, USA) supplemented with a protease inhibitor cocktail (Thermo Fisher Scientific, Rockford, IL, USA). Equal amounts of proteins were separated using SDS-PAGE on 8–13% gels, and transferred to nitrocellulose membranes (Bio-Rad, Hercules, CA, USA). The membranes were blocked with 5% skim milk in Tris-buffered saline-Tween 20 (TBST) (150 mM NaCl, 10 mM Tris, 0.2% Tween20), followed by overnight incubation with primary antibodies at 4 °C. The blots were developed using peroxidase-conjugated secondary antibody and the immunoreactive proteins were visualized using enhanced chemiluminescence (ECL) reagents, according to the manufacturer’s recommendations (Amersham, GE Healthcare, Buckingamshire, UK). The protein bands were visualized using a digital imaging system (ImageQuant LAS 4000 mini; GE Healthcare, UK). The protein levels were analyzed using Image J software (National Institutes of Health, Bethesda, MD, USA). Experiments were repeated at least thrice.

[15] = system: H1299 cells; assay: Immunoblot of cell cycle checkpoint proteins; format: cell-based, human; conditions: 5 μM, 6 h or 24 h
Protocol: as §8

[16] = system: A549 cells; assay: qPCR of DNA damage repair genes and STAT5 mRNA; format: cell-based, human; conditions: 24 h
Excerpt: (§9) RNA was extracted using TRIzol® RNA isolation reagent (ThermoFisher Scientific). RNA was reverse-transcribed into cDNA using the M-MLV reverse transcriptase (Enzynomics, Daejeon, Korea) and RNase inhibitor (Promega, Madison, WI, USA). The sequence of the primers targeting human BRCA1, BRCA2, RAD51, BARD1, XRCC6, and XRCC5 are as follows: BRCA1 sense 5′-[…]-3′, BRCA1 antisense 5′-[…]-3′, BRCA2 sense 5′-[…]-3′, BRCA2 antisense 5′-[…]-3′, RAD51 sense 5′-[…]-3′, RAD51 antisense 5′-[…]-3′, BARD1 sense 5′-[…]-3′, BARD1 antisense 5′-[…]-3′, XRCC6 sense 5′-[…]-3′, XRCC6 antisense 5′-[…]-3′, XRCC5 sense 5′-[…]-3′,and XRCC5 antisense 5′-[…]-3′. β-actin was used as a housekeeping gene for normalization. The cDNA was quantified using real-time PCR with SYBR Green/fluorescein qPCR master mix (ThermoScientific, Carlsbad, CA, USA) on a Lightcycler 96 system (Roche Diagnostics, Mannheim, Germany) according to the manufacturer’s protocol.

[17] = system: H1299 cells; assay: qPCR of DNA damage repair genes and STAT5 mRNA; format: cell-based, human; conditions: 24 h
Excerpt: as §9

Brc1ccc(-c2cnc(Nc3cccc4ccccc34)o2)cc1 [AIU2001, 5-(4-bromophenyl)-N-(naphthalen-1-yl) oxazol-2-amine]
inhibition at 10 µM [1]: 0% | inhibition at 10 µM [2]: 58% | inhibition at 10 µM [3]: 0% | inhibition at 10 µM [4]: 22% | inhibition at 10 µM [5]: 10% | inhibition at 10 µM [6]: 1% | inhibition at 10 µM [7]: 7% | inhibition at 10 µM [8]: 8% | inhibition at 10 µM [9]: 24% | Growth inhibition [10]: relatively less | Growth inhibition [11]: significantly inhibited the growth | Growth inhibition [12]: inhibited the growth | Growth inhibition [13]: inhibited the growth | Expression of p21 ([14]; A549 (p53 wild-type)): increased in A549 cells | Expression of phosphorylated p53 ([14]; A549 (p53 wild-type)): increased in A549 cells | CDC25C level ([14]; A549, 6 h or 24 h): decrease | Cyclin B1 level ([14]; A549, 6 h or 24 h): significant increase | Phosphorylated histone H3 level ([14]; A549, 6 h or 24 h): significant increase | Phosphorylation of CHK1 at Ser345 ([14]; A549, 6 h or 24 h): increased the phosphorylation | Phosphorylation of CHK2 at Thr68 ([14]; A549, 6 h or 24 h): increased the phosphorylation | CDC25C level [15]: decrease | Cyclin B1 level [15]: significant increase | Phosphorylated histone H3 level [15]: significant increase | Phosphorylation of CHK1 at Ser345 [15]: increased the phosphorylation | Phosphorylation of CHK2 at Thr68 [15]: increased the phosphorylation | Expression level of STAT5 mRNA [16]: downregulated | mRNA levels of HR (BRCA1, BRCA2, BARD1, RAD51) and NHEJ (XRCC5, XRCC6) genes [16]: reduced the mRNA levels | Expression level of STAT5 mRNA [17]: downregulated | mRNA levels of HR (BRCA1, BRCA2, BARD1, RAD51) and NHEJ (XRCC5, XRCC6) genes [17]: reduced the mRNA levels
